The test system of series [1] is HeLa (human cervical carcinoma). Nature of the series: Cell proliferative assay (MTT), HeLa. Conditions: Homo sapiens, HeLa, HeLa cells, read-out: Proliferative Inhibition (IC50, µM) HeLa. The class given is cell-based. The protocol: (§1) The anti-proliferative activities of synthesized compounds against HeLa, Hep-G2 and MCF-7 cells were evaluated by MTT assay. HeLa cells were grown to log phase in RPMI 1640 medium supplemented with 10% fetal bovine serum. Hep-G2 and MCF-7 cells were grown to log phase in DMEM medium supplemented with 10% fetal bovine serum. After diluting to […] with the complete medium, 100 µL of the obtained cell suspension was added to each well of 96-well culture plates. The subsequent incubation was permitted at 37 °C, 5% CO2 atmosphere for 48 h before the anti-proliferative assessments. Tested samples at pre-set concentrations were added to 6 wells. Before the anti-proliferative assessments, 20 µL of PBS containing 2.5 mg∙mL^−1 of MTT was added to each well. Four h later, 100 µL extraction solution (DMSO) was added to each well and the optical density was measured at a wavelength of 570 nm on an ELISA microplate reader.

Series [2] has as its target T1, c-MET (Homo sapiens, UniProt P08581).
T1 construct: purchased Cell Signaling Technology, Inc
Put plainly: In vitro kinase assay (HTScan MET Kinase Assay Kit, colorimetric ELISA). The class given is biochemical. Conditions: ATP 10 µM; three independent determinations; read-out: Enzymatic Inhibition (IC50, µM) c-MET. The protocol: (§2) In vitro kinase inhibitory ability was determined using HTScan MET Kinase Assay Kit, HTScan VEGF Receptor 2 Kinase Assay Kit, HTScan c-Kit Kinase Assay Kit, HTScan PDGF Receptor β Kinase Assay Kit and HTScan EGFR Kinase Assay Kit(purchased from Cell Signaling Technology, Inc. Danvers, MA, USA) by colorimetric ELISA assay according to the manufacturer’s instructions. Briefly, reaction cocktail containing recombinant human MET kinase or other kinases were incubated with various concentrations of tested compounds or DMSO (0.1%) for 5 min at room temperature, and then ATP/substrate peptide cocktail was added to the pre-incubated reaction cocktail. After incubation at room temperature for 30 min, the reaction was stopped and transferred to a 96-wellstreptavidin-coated plate, and incubated for 1 h at room temperature. Primary antibody (phosphorylated tyrosine monoclonal antibody (pTyr-100), 1:1000 in PBS/T with 1% bovine serum albumin (BSA)) was added into per well until the wells were washed thrice with PBS/T. After incubated at room temperature for 1 h, phosphorylation of the substrate was monitored with HRP-labeled anti-mouse IgG antibody (1:500 in PBS/T with 1% BSA), followed by a chromogenic reaction. Finally, the kinase assay was detected at 450 nm with microplate reader. The reaction processed with only DMSO (0.1%) served as a vehicle control. […] The kinase assay was performed thrice independently.
In general terms: ELISA stands for enzyme-linked immunosorbent assay.

Series [3] has as its system Hep-G2 (human liver cancer). Put plainly: Cell proliferative assay (MTT), Hep-G2. The class given is cell-based. Particulars: Homo sapiens, HepG2, Hep-G2 cells, read-out: Proliferative Inhibition (IC50, µM) Hep-G2. As for the experimental part: as §1
Series [4] has as its system MCF-7 (human breast cancer). Nature of the series: Cell proliferative assay (MTT), MCF-7. The class given is cell-based. Particulars: Homo sapiens, MCF7, MTT assay, MCF-7 cells; read-out: Proliferative Inhibition (IC50, µM) MCF-7. As for the experimental part:
as §1

In series [5] the test system is c-MET. Set-up: method as in PMID 19896842, PMID 24485123, PMID 23041435. Conditions: cell-free assays; cited from earlier work.
The target of series [6] is T2, PDGFR-b (Homo sapiens, UniProt P09619).
T2 construct: purchased Cell Signaling Technology, Inc
T2 sequence (P09619 33-1106): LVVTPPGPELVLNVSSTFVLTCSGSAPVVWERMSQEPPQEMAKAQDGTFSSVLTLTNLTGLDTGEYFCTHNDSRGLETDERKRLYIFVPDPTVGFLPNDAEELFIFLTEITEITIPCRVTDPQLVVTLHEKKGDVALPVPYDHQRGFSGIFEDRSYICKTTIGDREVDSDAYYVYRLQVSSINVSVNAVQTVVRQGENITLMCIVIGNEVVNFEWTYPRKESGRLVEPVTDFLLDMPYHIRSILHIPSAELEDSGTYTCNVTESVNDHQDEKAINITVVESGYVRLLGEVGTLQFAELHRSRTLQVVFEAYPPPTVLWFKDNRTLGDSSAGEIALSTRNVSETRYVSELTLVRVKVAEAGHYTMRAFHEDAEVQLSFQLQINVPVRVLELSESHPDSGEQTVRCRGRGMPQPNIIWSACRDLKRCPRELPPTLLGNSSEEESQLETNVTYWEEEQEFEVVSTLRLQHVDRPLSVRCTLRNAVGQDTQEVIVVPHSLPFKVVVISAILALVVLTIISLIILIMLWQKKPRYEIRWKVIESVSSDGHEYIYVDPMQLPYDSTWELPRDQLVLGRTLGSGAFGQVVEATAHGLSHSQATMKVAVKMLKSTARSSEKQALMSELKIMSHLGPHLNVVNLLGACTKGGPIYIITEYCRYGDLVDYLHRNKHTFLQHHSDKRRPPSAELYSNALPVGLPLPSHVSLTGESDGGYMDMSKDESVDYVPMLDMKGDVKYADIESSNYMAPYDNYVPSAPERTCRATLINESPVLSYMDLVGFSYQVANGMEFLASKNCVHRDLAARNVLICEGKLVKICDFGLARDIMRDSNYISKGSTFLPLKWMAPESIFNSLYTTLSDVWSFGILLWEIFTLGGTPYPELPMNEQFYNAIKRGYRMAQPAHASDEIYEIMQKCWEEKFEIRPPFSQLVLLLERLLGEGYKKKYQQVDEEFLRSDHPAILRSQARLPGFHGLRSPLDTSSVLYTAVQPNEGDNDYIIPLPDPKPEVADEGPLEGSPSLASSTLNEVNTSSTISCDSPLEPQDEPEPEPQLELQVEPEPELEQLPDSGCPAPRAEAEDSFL
Nature of the series: In vitro kinase assay (HTScan PDGF Receptor β Kinase Assay Kit). The class given is biochemical. Particulars: for IC50: ATP 10 µM, read-out: Enzyme, IC50, µM PDGFR-b; for selectivity against PDGFR-b: relative to c-MET. The protocol:
as §2

For series [7], the target named is T3, VEGFR-2 (Homo sapiens, UniProt P35968).
T3 construct: purchased Cell Signaling Technology, Inc
Put plainly: In vitro kinase assay (HTScan VEGF Receptor 2 Kinase Assay Kit). The class given is biochemical. Particulars: ATP 10 µM; read-out: Enzyme, IC50, µM VEGFR-2. The protocol: In vitro kinase inhibitory ability was determined using HTScan MET Kinase Assay Kit, HTScan VEGF Receptor 2 Kinase Assay Kit, HTScan c-Kit Kinase Assay Kit, HTScan PDGF Receptor β Kinase Assay Kit and HTScan EGFR Kinase Assay Kit(purchased from Cell Signaling Technology, Inc. Danvers, MA, USA) by colorimetric ELISA assay according to the manufacturer’s instructions. Briefly, reaction cocktail containing recombinant human MET kinase or other kinases were incubated with various concentrations of tested compounds or DMSO (0.1%) for 5 min at room temperature, and then ATP/substrate peptide cocktail was added to the pre-incubated reaction cocktail. After incubation at room temperature for 30 min, the reaction was stopped and transferred to a 96-wellstreptavidin-coated plate, and incubated for 1 h at room temperature. Primary antibody (phosphorylated tyrosine monoclonal antibody (pTyr-100), 1:1000 in PBS/T with 1% bovine serum albumin (BSA)) was added into per well until the wells were washed thrice with PBS/T. After incubated at room temperature for 1 h, phosphorylation of the substrate was monitored with HRP-labeled anti-mouse IgG antibody (1:500 in PBS/T with 1% BSA), followed by a chromogenic reaction. Finally, the kinase assay was detected at 450 nm with microplate reader. The reaction processed with only DMSO (0.1%) served as a vehicle control. […]

Series [8] has as its target T4, EGFR (Homo sapiens, UniProt P00533).
T4 construct: purchased Cell Signaling Technology, Inc
Nature of the series: In vitro kinase assay (HTScan EGFR Kinase Assay Kit). The class given is biochemical. Particulars: for IC50: ATP 10 µM, read-out: Enzyme, IC50, µM EGFR; for selectivity against EGFR: relative to c-MET. The protocol:
as §2

Series [9] addresses T5, c-Kit (Homo sapiens, UniProt P10721).
T5 construct: purchased Cell Signaling Technology, Inc
Put plainly: In vitro kinase assay (HTScan c-Kit Kinase Assay Kit). Particulars: for IC50: ATP 10 µM, read-out: Enzyme, IC50, µM c-Kit; for selectivity against c-Kit: relative to c-MET. The class given is biochemical. The protocol: as §2

The values below come from paper PMC6272887, “Discovery of Potent c-MET Inhibitors with New Scaffold Having Different Quinazoline, Pyridine and Tetrahydro-Pyridothienopyrimidine Headgroups” (Molecules, 2016).

T5 sequence (P10721 26-976): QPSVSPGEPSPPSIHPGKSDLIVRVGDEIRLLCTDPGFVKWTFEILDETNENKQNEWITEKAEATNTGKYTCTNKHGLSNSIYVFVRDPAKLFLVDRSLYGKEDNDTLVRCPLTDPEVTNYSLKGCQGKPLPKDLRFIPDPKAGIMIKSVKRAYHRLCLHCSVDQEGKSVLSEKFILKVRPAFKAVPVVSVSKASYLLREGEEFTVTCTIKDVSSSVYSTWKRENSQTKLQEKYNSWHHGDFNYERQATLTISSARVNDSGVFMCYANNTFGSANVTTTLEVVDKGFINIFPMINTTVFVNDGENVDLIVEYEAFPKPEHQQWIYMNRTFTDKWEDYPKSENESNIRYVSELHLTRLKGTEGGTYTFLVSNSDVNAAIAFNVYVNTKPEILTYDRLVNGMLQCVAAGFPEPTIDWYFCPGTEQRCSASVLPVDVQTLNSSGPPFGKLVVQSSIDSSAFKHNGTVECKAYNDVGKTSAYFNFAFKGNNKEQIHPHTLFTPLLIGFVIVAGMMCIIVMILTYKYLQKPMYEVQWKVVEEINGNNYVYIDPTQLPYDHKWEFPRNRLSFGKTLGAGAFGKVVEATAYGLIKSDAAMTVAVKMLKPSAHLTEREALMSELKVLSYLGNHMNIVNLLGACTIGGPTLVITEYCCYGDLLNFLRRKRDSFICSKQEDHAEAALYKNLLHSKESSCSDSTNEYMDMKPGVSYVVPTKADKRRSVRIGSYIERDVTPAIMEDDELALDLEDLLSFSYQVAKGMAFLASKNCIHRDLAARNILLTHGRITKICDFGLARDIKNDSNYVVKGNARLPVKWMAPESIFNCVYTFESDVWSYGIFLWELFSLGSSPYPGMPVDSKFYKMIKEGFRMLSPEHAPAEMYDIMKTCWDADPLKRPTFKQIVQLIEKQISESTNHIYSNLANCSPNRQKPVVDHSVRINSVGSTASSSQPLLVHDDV
T4 sequence (P00533 25-1210): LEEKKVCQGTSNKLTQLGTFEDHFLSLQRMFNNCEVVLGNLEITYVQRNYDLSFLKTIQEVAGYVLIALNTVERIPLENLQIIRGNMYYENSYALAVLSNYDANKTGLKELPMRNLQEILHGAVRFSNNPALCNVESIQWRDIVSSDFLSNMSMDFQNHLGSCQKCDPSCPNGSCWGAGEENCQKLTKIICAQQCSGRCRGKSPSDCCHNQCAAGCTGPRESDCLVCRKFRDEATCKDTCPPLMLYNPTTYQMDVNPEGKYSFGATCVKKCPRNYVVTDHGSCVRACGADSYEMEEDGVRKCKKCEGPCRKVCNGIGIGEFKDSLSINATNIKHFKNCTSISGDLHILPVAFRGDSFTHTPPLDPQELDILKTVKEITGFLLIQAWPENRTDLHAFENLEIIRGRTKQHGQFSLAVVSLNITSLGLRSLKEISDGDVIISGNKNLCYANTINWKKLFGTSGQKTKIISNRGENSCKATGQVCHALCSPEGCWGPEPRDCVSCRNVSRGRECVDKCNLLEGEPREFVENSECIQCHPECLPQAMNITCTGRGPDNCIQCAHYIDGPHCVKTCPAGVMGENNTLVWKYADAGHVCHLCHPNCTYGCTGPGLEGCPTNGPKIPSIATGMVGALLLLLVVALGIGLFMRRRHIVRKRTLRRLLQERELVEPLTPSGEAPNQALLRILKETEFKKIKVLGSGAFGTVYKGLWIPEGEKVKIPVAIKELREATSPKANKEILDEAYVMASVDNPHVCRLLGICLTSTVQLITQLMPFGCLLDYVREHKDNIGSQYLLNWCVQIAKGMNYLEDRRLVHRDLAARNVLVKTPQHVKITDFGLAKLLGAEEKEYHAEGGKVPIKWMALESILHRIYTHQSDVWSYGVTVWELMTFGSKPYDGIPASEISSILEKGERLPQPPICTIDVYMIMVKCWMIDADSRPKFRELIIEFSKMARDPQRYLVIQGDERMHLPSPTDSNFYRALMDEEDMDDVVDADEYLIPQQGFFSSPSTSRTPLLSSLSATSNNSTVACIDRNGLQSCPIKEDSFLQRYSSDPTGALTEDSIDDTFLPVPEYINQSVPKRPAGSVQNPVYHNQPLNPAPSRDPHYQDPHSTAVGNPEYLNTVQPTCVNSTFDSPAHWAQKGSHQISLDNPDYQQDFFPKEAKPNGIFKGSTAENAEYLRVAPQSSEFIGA
T1 sequence (P08581 25-1390): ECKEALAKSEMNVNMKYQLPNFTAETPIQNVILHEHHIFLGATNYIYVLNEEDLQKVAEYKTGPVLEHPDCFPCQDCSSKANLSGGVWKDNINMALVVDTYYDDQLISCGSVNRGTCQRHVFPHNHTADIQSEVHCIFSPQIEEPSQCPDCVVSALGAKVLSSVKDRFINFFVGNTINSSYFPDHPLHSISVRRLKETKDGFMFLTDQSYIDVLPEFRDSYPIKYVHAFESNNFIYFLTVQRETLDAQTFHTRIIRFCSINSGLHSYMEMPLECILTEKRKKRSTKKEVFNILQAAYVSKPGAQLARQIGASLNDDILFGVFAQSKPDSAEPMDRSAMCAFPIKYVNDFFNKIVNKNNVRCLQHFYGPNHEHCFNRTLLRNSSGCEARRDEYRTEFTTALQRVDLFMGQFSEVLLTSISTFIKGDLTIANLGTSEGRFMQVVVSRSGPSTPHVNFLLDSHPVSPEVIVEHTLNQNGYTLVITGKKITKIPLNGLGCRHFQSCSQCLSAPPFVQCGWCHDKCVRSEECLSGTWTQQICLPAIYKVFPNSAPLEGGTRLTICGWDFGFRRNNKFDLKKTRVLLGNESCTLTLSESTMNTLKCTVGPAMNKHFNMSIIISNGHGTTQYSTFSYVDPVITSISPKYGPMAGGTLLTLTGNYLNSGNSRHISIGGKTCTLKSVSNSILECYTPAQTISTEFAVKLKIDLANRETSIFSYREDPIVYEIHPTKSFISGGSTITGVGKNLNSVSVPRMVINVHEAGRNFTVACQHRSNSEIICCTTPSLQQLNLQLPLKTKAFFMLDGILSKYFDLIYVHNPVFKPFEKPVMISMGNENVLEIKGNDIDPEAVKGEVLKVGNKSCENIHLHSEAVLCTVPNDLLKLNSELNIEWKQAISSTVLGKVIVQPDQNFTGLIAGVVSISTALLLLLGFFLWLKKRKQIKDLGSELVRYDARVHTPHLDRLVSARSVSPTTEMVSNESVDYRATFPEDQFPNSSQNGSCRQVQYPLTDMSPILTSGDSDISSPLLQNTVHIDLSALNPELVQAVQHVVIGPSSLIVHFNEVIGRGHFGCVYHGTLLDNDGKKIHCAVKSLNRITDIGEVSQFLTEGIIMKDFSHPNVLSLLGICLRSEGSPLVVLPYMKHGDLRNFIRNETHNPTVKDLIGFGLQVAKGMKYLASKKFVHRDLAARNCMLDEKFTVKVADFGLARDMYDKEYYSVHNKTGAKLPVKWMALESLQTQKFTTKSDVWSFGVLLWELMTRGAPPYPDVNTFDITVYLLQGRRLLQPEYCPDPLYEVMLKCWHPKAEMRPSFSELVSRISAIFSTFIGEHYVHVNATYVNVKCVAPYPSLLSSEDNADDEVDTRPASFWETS

Usually melting point stands for the temperature of the solid-liquid transition. As a reminder, the IC50 is the concentration needed to halve the response being measured. Molecule `COc1cc2ncnc(Oc3ccc(NC(=O)C(C)(C)C(=O)Nc4ccc(F)cc4)cc3F)c2cc1OC` [Compound 13a, N^1-{4-((6,7-dimethoxyquinazolin-4-yl)oxy)-3-fluorophenyl}-N^3-(4-fluorophenyl)-2,2-dimethylmalonamide] registered a melting point of 210 to 212 °C. In addition, the IC50 in [1] was > 100 µM. For the same molecule, the half-maximal inhibitory concentration (IC50) in series [2] turned out to be 7.1 ± 0.18 µM. For the same molecule, the half-inhibitory concentration (IC50) in series [3] is > 100 µM. In [4], the IC50 was determined as 71.8 ± 0.31 µM.

The molecule `CNC(=O)c1cc(Oc2ccc(NC(=O)C(C)(C)C(=O)Nc3ccc(F)cc3)cc2)ccn1` [Compound 13d, N^1-(4-fluorophenyl)-2,2-dimethyl-N^3-{4-((2-(methylcarbamoyl)pyridin-4-yl)oxy]phenyl}malonamide] gave a melting point of 113 to 115 °C. In addition, the IC50 in series [1] was > 100 µM. Besides, the IC50 in [2] was > 10 µM. The IC50 in series [3] was > 100 µM. Further, in [4], the IC50 was 91.2 ± 0.26 µM.

Consider `CC(C)(C)OC(=O)N1CCc2c(sc3ncnc(Oc4ccc(NC(=O)C5(C(=O)Nc6ccc(F)cc6)CCC5)cc4F)c23)C1` [Compound 13i, tert-butyl-4-{2-fluoro-4-(1-((4-fluorophenyl)carbamoyl)cyclobutanecarboxamido)phenoxy}-5,6-dihydropyrido(4’,3’:4,5)thieno(2,3-d)pyrimidine-7(8H)-carboxylate], for which the melting point is 101 to 103 °C. For the same molecule, the IC50 in series [1] amounted to 4.2 ± 0.31 µM. Further, in series [2], the IC50 came to 0.25 ± 0.08 µM. The IC50 in series [3] came to 43.2 ± 0.26 µM. The IC50 in series [4] was found to be 21.7 ± 0.16 µM.

Molecule `COc1cc2ncnc(Oc3ccc(NC(=O)C4(C(=O)Nc5ccc(F)cc5)CCC4)cc3F)c2cc1OC` [Compound 13c, N-{4-((6,7-dimethoxyquinazolin-4-yl)oxy)-3-fluorophenyl}-N-(4-fluorophenyl)cyclobutane-1,1-dicarboxamide] came in with a melting point of 250 to 252 °C. Moreover, in [1], the IC50 amounted to 50.1 ± 0.25 µM. In series [2], the IC50 worked out at 1.2 ± 0.06 µM. Besides, in [3], the IC50 came to 49.1 ± 0.3 µM. For the same molecule, in series [4], the IC50 was > 100 µM.

Regarding `COc1ccc(NC(=O)c2cccc(Oc3ncnc4sc5c(c34)CCN(C(=O)OC(C)(C)C)C5)c2)cc1OC` [Compound 11g, tert-butyl 4-{3-((3,4-dimethoxyphenyl)carbamoyl)phenoxy}-5,6-dihydropyrido(4’,3’:4,5)thieno(2,3-d)pyrimidine-7(8H)-carboxylate], the melting point was in the range of 103 to 105 °C. Further, the IC50 in series [1] was found to be 4.4 ± 0.26 µM. Also, in series [2], the IC50 is 1.4 ± 0.1 µM. In series [3], the IC50 was > 100 µM. For the same molecule, in [4], the concentration for half-maximal inhibition (IC50) was 17.3 ± 0.38 µM.

Regarding `COc1cc2nccc(Oc3ccc(NC(=O)C4(C(=O)Nc5ccc(F)cc5)CC4)cc3)c2cc1OC` [XL184, Cabozantinib, reference compound], the figures for the IC50 in series [5] and in series [3] were 0.0013 µM and 49.1 ± 0.25 µM, respectively.

Take `COc1cc2ncnc(Oc3cccc(C(=O)Nc4ccc(Cl)cc4)c3)c2cc1OC` [Compound 11b, N-(4-chlorophenyl)-3-((6,7-dimethoxyquinazolin-4-yl)oxy)benzamide]: the melting point lay in the range of 203 to 205 °C. The IC50 in series [1] stood at 1.8 ± 0.06 µM. Also, the IC50 in series [2] came to 0.12 ± 0.03 µM. Further, the IC50 in series [3] turned out to be 9.2 ± 0.17 µM. In [4], the IC50 stood at 7.8 ± 0.14 µM.

Regarding `CC(C)(C)OC(=O)N1CCc2c(sc3ncnc(Oc4ccc(NC(=O)C5(C(=O)Nc6ccc(F)cc6)CC5)cc4F)c23)C1` [Compound 13h, tert-butyl-4-{2-fluoro-4-(1-((4-fluorophenyl)carbamoyl)cyclopropanecarboxamido)phenoxy}-5,6-dihydropyrido(4’,3’:4,5)thieno(2,3-d)pyrimidine-7(8H)-carboxylate], the melting point lay in the range of 171 to 173 °C. Further, the IC50 in [1] stood at 4.6 ± 0.03 µM. In [6], the IC50 turned out to be 7.2 ± 0.1 µM and the “selectivity against PDGFR-b” value came out at 144 fold. In addition, the IC50 in [2] was found to be 0.05 ± 0.01 µM. In addition, the IC50 in series [7] is 0.25 ± 0.02 µM. For the same molecule, in [8], the IC50 was > 10 µM and the “selectivity against EGFR” value is > 200 fold. In [9], the IC50 turned out to be 5.2 ± 0.09 µM and the “selectivity against c-Kit” value is reported as 104 fold. Besides, the IC50 in [3] was 1.7 ± 0.04 µM. Also, in [4], the IC50 worked out at 2.8 ± 0.23 µM.

The molecule `COc1cc2ncnc(Oc3ccc(NC(=O)C4(C(=O)Nc5ccc(F)cc5)CC4)cc3F)c2cc1OC` [Compound 13b] had a melting point of 180 to 182 °C. In series [1], the IC50 amounted to 4.7 ± 0.11 µM. Further, in [6], the IC50 was > 10 µM and the “selectivity against PDGFR-b” value is on record as > 500 fold. Besides, the IC50 in series [2] was determined as 0.02 µM. The IC50 in series [7] turned out to be 0.1 ± 0.02 µM. In [8], the IC50 is > 10 µM and the “selectivity against EGFR” value is given as > 500 fold. Further, in [9], the IC50 amounted to 4.3 ± 0.11 µM and the “selectivity against c-Kit” value is 215 fold. Besides, the IC50 in series [3] amounted to 12.8 ± 0.28 µM. The IC50 in series [4] amounted to 1.2 ± 0.21 µM.

The molecule `COc1ccc(NC(=O)c2cccc(Oc3ncnc4cc(OC)c(OC)cc34)c2)cc1OC` [Compound 11a, N-(3,4-dimethoxyphenyl)-3-((6,7-dimethoxyquinazolin-4-yl)oxy)benzamide] displayed a melting point of 220 to 222 °C. In addition, the IC50 in series [1] came to 14.1 ± 0.16 µM. Further, the IC50 in series [2] came out at 0.52 ± 0.05 µM. For the same molecule, in [3], the IC50 was > 100 µM. The IC50 in series [4] turned out to be 3.4 ± 0.21 µM.

The molecule `COc1cc2ncnc(Oc3cccc(C(=O)Nc4ccc(F)cc4)c3)c2cc1OC` [Compound 11c, 3-((6,7-dimethoxyquinazolin-4-yl)oxy)-N-(4-fluorophenyl)benzamide] gave a melting point of 178 to 180 °C. In addition, the IC50 in [1] turned out to be 0.9 ± 0.12 µM. Further, the IC50 in series [2] amounted to 0.08 ± 0.04 µM. The IC50 in [3] is 10.1 ± 0.2 µM. For the same molecule, the IC50 in series [4] turned out to be 5.2 ± 0.36 µM.

`COc1cc2ncnc(Oc3cccc(C(=O)Nc4cc(C(C)(C)C)nn4-c4ccccc4)c3)c2cc1OC` [Compound 9a, N-(3-(tert-butyl)-1-phenyl-1H-pyrazol-5-yl)-3-((6,7-dimethoxyquinazolin-4-yl)oxy)benzamide] had a melting point of 217 to 219 °C. In series [1], the IC50 was 28.7 ± 1.1 µM. The IC50 in [2] is 8.4 ± 0.6 µM. Moreover, the IC50 in series [3] stood at 38.5 ± 1.3 µM. Besides, the IC50 in [4] worked out at 46.1 ± 0.8 µM.
